Activity calls are given as the source filed them. No rule for the calls is given here.

This data set deals with rodent lifetime carcinogenesis bioassay, tumor incidence TD50. As to the kind of experiment: chronic cancer bioassays in animals – CPDB, compiled studies (AID 1745844).

In the case of `COc1ccc(C(=O)Nc2c(Cl)cncc2Cl)cc1OC1CCCC1`, the TD50 (usually the dose at which the toxic effect under study appears in half of the subjects) runs as follows: (rat, strain IcoIbm:OFA (Sprague-Dawley derived), females, inhaled, site: nasal cavity, olfactory epithelium, lesion: carcinoma, dosed 102 weeks, study length 102 weeks) 24.6 mg/kg/day; (rat, strain IcoIbm:OFA (Sprague-Dawley derived), females, inhaled, site: nasal cavity, olfactory epithelium, lesion: malignant tumor, dosed 102 weeks, study length 102 weeks) 1.22 mg/kg/day; (rat, strain IcoIbm:OFA (Sprague-Dawley derived), females, inhaled, site: nasal cavity, olfactory epithelium, lesion: neuroblastoma, in situ, dosed 102 weeks, study length 102 weeks) 12.2 mg/kg/day; (rat, strain IcoIbm:OFA (Sprague-Dawley derived), females, inhaled, site: nasal cavity, olfactory epithelium, lesion: neuroblastoma, dosed 102 weeks, study length 102 weeks) 1.68 mg/kg/day; (rat, strain IcoIbm:OFA (Sprague-Dawley derived), females, inhaled, site: nasal cavity, olfactory epithelium, lesion: several types, types named in the paper, dosed 102 weeks, study length 102 weeks) 1.18 mg/kg/day; (rat, strain IcoIbm:OFA (Sprague-Dawley derived), females, inhaled, site: nasal cavity, olfactory region, Bowman's gland, lesion: adenocarcinoma, dosed 102 weeks, study length 102 weeks) 24.6 mg/kg/day. Besides, the TD50 is 24.7 mg/kg/day (rat, strain IcoIbm:OFA (Sprague-Dawley derived), females, inhaled, site: nasal cavity, olfactory region, Bowman's gland, lesion: adenoma, dosed 102 weeks, study length 102 weeks); 51.5 mg/kg/day (rat, strain IcoIbm:OFA (Sprague-Dawley derived), males, inhaled, site: nasal cavity, olfactory epithelium, lesion: carcinoma, dosed 104 weeks, study length 104 weeks); 2.48 mg/kg/day (rat, strain IcoIbm:OFA (Sprague-Dawley derived), males, inhaled, site: nasal cavity, olfactory epithelium, lesion: malignant tumor, dosed 104 weeks, study length 104 weeks); 17 mg/kg/day (rat, strain IcoIbm:OFA (Sprague-Dawley derived), males, inhaled, site: nasal cavity, olfactory epithelium, lesion: neuroblastoma, in situ, dosed 104 weeks, study length 104 weeks); 3.75 mg/kg/day (rat, strain IcoIbm:OFA (Sprague-Dawley derived), males, inhaled, site: nasal cavity, olfactory epithelium, lesion: neuroblastoma, dosed 104 weeks, study length 104 weeks); 2.22 mg/kg/day (rat, strain IcoIbm:OFA (Sprague-Dawley derived), males, inhaled, site: nasal cavity, olfactory epithelium, lesion: several types, types named in the paper, dosed 104 weeks, study length 104 weeks). For the same compound, the TD50 (rat, strain IcoIbm:OFA (Sprague-Dawley derived), males, inhaled, site: nasal cavity, olfactory region, Bowman's gland, lesion: adenocarcinoma, dosed 104 weeks, study length 104 weeks) is 25.6 mg/kg/day and the TD50 (rat, strain IcoIbm:OFA (Sprague-Dawley derived), males, inhaled, site: nasal cavity, olfactory region, Bowman's gland, lesion: adenoma, dosed 104 weeks, study length 104 weeks) is 12.7 mg/kg/day.

As for `O=NN1CCCN(N=O)C1`, where the note is “rat, strain Sprague-Dawley, males, i.p., site: paranasal sinus, lesion: squamous-cell carcinoma, dosed 104 weeks, study length 104 weeks”, the TD50 was 0.166 mg/kg/day.

Turning to `CN(C#N)N=O`, the TD50 is 1.17 mg/kg/day (rat, strain Sprague-Dawley, females, in drinking water, site: forestomach, lesion: carcinoma, dosed 60 weeks, study length 95 weeks) and 0.48 mg/kg/day (rat, strain Sprague-Dawley, females, in drinking water, site: forestomach, lesion: several types, types named in the paper, dosed 60 weeks, study length 95 weeks).

`CC(C)NCC(O)c1ccc(NS(C)(=O)=O)cc1` (stereo unspecified): the TD50 reads like this: (mouse, strain Charles River CD1, females, in feed, site: any site (literature study), lesion: benign tumor, dosed 78 weeks, study length 92 weeks) 1740 mg/kg/day (inactive); (mouse, strain Charles River CD1, females, in feed, site: any site (literature study), lesion: several types, types named in the paper, dosed 78 weeks, study length 92 weeks) 1910 mg/kg/day (inactive); (mouse, strain Charles River CD1, females, in feed, site: lung, lesion: adenoma, dosed 78 weeks, study length 92 weeks) 3500 mg/kg/day (inactive); (mouse, strain Charles River CD1, females, in feed, site: lung, lesion: carcinoma, dosed 78 weeks, study length 92 weeks) 24500 mg/kg/day (inactive); (mouse, strain Charles River CD1, males, in feed, site: lung, lesion: adenoma, dosed 78 weeks, study length 92 weeks) 31400 mg/kg/day (inactive); (rat, strain Long-Evans, females, in feed, site: any site (literature study), lesion: malignant tumor, dosed 78 weeks, study length 104 weeks) 1600 mg/kg/day (inactive). The TD50 was 477 mg/kg/day (inactive) (rat, strain Long-Evans, females, in feed, site: any site (literature study), lesion: several types, types named in the paper, dosed 78 weeks, study length 104 weeks); 12600 mg/kg/day (inactive) (rat, strain Long-Evans, females, in feed, site: liver, lesion: cholangioma, dosed 78 weeks, study length 104 weeks); 2270 mg/kg/day (inactive) (rat, strain Long-Evans, males, in feed, site: any site (literature study), lesion: malignant tumor, dosed 78 weeks, study length 104 weeks); 796 mg/kg/day (inactive) (rat, strain Long-Evans, males, in feed, site: any site (literature study), lesion: several types, types named in the paper, dosed 78 weeks, study length 104 weeks); 309000 mg/kg/day (inactive) (rat, strain Long-Evans, males, in feed, site: liver, lesion: hepatocellular adenoma, dosed 78 weeks, study length 104 weeks); 12400 mg/kg/day (inactive) (rat, strain Long-Evans, males, in feed, site: liver, lesion: hepatocellular carcinoma, dosed 78 weeks, study length 104 weeks). Also, the carcinogen call was “negative (inactive)” (mouse, strain Charles River CD1, females, in feed, site: any site (literature study), lesion: malignant tumor, dosed 78 weeks, study length 92 weeks); “negative (inactive)” (mouse, strain Charles River CD1, females, in feed, site: liver, lesion: one or several types, types not named, dosed 78 weeks, study length 92 weeks); “negative (inactive)” (mouse, strain Charles River CD1, males, in feed, site: any site (literature study), lesion: benign tumor, dosed 78 weeks, study length 92 weeks); “negative (inactive)” (mouse, strain Charles River CD1, males, in feed, site: any site (literature study), lesion: malignant tumor, dosed 78 weeks, study length 92 weeks); “negative (inactive)” (mouse, strain Charles River CD1, males, in feed, site: any site (literature study), lesion: several types, types named in the paper, dosed 78 weeks, study length 92 weeks); “negative (inactive)” (mouse, strain Charles River CD1, males, in feed, site: liver, lesion: adenoma, dosed 78 weeks, study length 92 weeks). The carcinogen call runs as follows: (mouse, strain Charles River CD1, males, in feed, site: liver, lesion: carcinoma, dosed 78 weeks, study length 92 weeks) “negative (inactive)”; (mouse, strain Charles River CD1, males, in feed, site: lung, lesion: carcinoma, dosed 78 weeks, study length 92 weeks) “negative (inactive)”; (rat, strain Long-Evans, females, in feed, site: any site (literature study), lesion: benign tumor, dosed 78 weeks, study length 104 weeks) “negative (inactive)”; (rat, strain Long-Evans, males, in feed, site: any site (literature study), lesion: benign tumor, dosed 78 weeks, study length 104 weeks) “negative (inactive)”.

With `CCCCCCCCCCCCCCCC(=O)OC/C=C(C)/C=C/C=C(C)/C=C/C1=C(C)CCCC1(C)C`, for the setting “mouse, strain ICR/Jcl, males, in drinking water, site: forestomach, lesion: one or several types, types not named, dosed 66 weeks, study length 66 weeks”, the carcinogen call was “negative (inactive)”.

`FCC(F)(F)F`: the carcinogen call is “negative (inactive)” (mouse, strain B6C3F1, females, inhaled, site: liver, lesion: hepatocellular adenoma, dosed 104 weeks, study length 104 weeks); “negative (inactive)” (mouse, strain B6C3F1, females, inhaled, site: liver, lesion: hepatocellular carcinoma, dosed 104 weeks, study length 104 weeks); “negative (inactive)” (mouse, strain B6C3F1, females, inhaled, site: lung, lesion: alveolar/bronchiolar tumor, dosed 104 weeks, study length 104 weeks); “negative (inactive)” (mouse, strain B6C3F1, males, inhaled, site: lung, lesion: alveolar/bronchiolar tumor, dosed 104 weeks, study length 104 weeks); “negative (inactive)” (rat, strain Han-Ibm Wistar, males, inhaled, site: testis, lesion: interstitial-cell tumor, dosed 108 weeks, study length 108 weeks). Moreover, the TD50 was 1.5e+06 mg/kg/day (inactive) (mouse, strain B6C3F1, males, inhaled, site: liver, lesion: hepatocellular adenoma, dosed 104 weeks, study length 104 weeks); 260000 mg/kg/day (inactive) (mouse, strain B6C3F1, males, inhaled, site: liver, lesion: hepatocellular carcinoma, dosed 104 weeks, study length 104 weeks); 29900 mg/kg/day (rat, strain Alpk:APfSD, males, inhaled, site: testis, lesion: Leydig-cell adenoma, dosed 104 weeks, study length 104 weeks); 2.8e+06 mg/kg/day (inactive) (rat, strain Han-Ibm Wistar, females, inhaled, site: liver, lesion: hepatocellular carcinoma, dosed 108 weeks, study length 108 weeks); 70100 mg/kg/day (inactive) (rat, strain Han-Ibm Wistar, males, inhaled, site: liver, lesion: hepatocellular adenoma, dosed 108 weeks, study length 108 weeks); 140000 mg/kg/day (inactive) (rat, strain Han-Ibm Wistar, males, inhaled, site: liver, lesion: hepatocellular carcinoma, dosed 108 weeks, study length 108 weeks).

The values above are taken from PubChem BioAssay AID1745844 (Carcinogenic Potency Database (CPDB), 2022).
